Laboratory results published in US10266497B2 (ABIDE THERAPEUTICS, INC., priority 2017, dated 2019).

What was measured:
MAGL [1] = target: T1, MAGL (Mus musculus, UniProt O35678); experiment: Mouse brain proteomes from inhibitor treated mice (oral gavage, sacrificed 4 h after administration); assay type: in vivo; set-up: mouse brain membrane fraction for mouse assays; from tissue; host or cells: mouse brain (membrane fraction in vitro; brain proteomes of treated C57Bl/6J mice in vivo); settings: 5 mg/kg oral gavage, brain proteome 4 h after administration, read-out: MAGL % inh. 5 mg/kg (mouse)
T1 sequence (O35678 1-303): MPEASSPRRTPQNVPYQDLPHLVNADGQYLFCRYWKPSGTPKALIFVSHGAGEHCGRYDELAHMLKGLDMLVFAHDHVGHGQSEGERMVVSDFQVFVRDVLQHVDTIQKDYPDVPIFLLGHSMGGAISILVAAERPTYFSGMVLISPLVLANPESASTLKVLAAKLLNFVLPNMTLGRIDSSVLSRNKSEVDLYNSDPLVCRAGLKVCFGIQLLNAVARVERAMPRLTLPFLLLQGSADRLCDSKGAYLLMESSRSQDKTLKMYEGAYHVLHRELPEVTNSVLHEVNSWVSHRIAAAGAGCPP

MAGL [2] = target: T2, MAGL (Homo sapiens, UniProt Q99685); experiment: In vitro competitive activity-based protein profiling, MAGL, human; settings: read-out: MAGL % inh. 1 μM (human)
T2 sequence (Q99685 1-303): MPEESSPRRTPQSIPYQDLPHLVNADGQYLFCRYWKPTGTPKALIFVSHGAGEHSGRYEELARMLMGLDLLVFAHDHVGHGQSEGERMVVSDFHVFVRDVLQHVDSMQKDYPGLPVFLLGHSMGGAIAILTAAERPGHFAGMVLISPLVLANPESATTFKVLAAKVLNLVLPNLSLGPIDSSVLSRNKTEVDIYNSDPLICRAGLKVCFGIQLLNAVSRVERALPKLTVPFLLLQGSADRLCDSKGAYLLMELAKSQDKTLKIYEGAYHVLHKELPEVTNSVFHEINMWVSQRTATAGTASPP

MAGL [3] = target: T1, MAGL; experiment: In vitro competitive activity-based protein profiling, MAGL, mouse; settings: read-out: MAGL % inh. 1 μM (mouse)

Row | SMILES | inhibition at 5 mg/kg (MAGL [1]) [%] | inhibition at 1 µM (MAGL [2]) [%] | inhibition at 1 µM (MAGL [3]) [%]
1 | Cc1cc(-c2ccccc2)ccc1CN1CCN(C(=O)n2ccc(C(=O)O)n2)[C@H](C)C1 [Example 245, (R)-1-(2-methyl-4-((3-methyl-[1,1′-biphenyl]-4-yl)methyl)piperazine-1-carbonyl)-1H-pyrazole-3-carboxylic acid] | 0 to 25 | > 75 | > 75
2 | C[C@@H]1C[C@H](N(C)Cc2cccc(C(F)(F)F)c2)CCN1C(=O)n1ccc(C(N)=O)n1 [Example 257, 1-((2R,4R)-2-methyl-4-(methyl(3-(trifluoromethyl)benzyl)amino)piper-idine-1-carbonyl)-1H-pyrazole-3-carboxamide] | > 75 | > 75 | > 75
3 | C[C@@H]1C[C@@H](N(C)Cc2cccc(C(F)(F)F)c2)CCN1C(=O)n1ccc(C(N)=O)n1 [Example 260, 1-((2R,4S)-2-methyl-4-(methyl(3-(trifluoromethyl)benzyl)amino)piper-idine-1-carbonyl)-1H-pyrazole-3-carboxamide] | > 75 | > 75 | > 75
4 | O=C(O)c1ccn(C(=O)N2CCC(Oc3cc(N4CCCC4)cc(C(F)(F)F)c3)CC2)n1 [Example 308, 1-(4-(3-(pyrrolidin-1-yl)-5-(trifluoromethyl)phenoxy)piperidine-1-carbonyl)-1H-pyrazole-3-carboxylic acid] | 0 to 25 | > 75 | > 75
5 | C[C@H]1CN(Cc2cccc(Oc3ccc(Cl)cc3)c2)CCN1C(=O)n1ccc(C(=O)O)n1 [Example 311, (S)-1-(4-(3-(4-chlorophenoxy)benzyl)-2-methylpiperazine-1-carbonyl)-1H-pyrazole-3-carboxylic acid] | 0 to 25 | > 75 | > 75
6 | O=C(O)c1ccn(C(=O)N2CCC3(CCN(Cc4cc(Cl)cc(Cl)c4Cl)C3)CC2)n1 [Example 337, 1-(2-(2,3,5-trichlorobenzyl)-2,8-diazaspiro[4.5]decane-8-carbonyl)-1H-pyrazole-3-carboxylic acid] | 0 to 25 | > 75 | > 75
7 | C[C@H]1CN(Cc2cc(F)cc(Oc3ccc(Cl)cc3)c2)CCN1C(=O)n1ccc(C(=O)O)n1 [Example 347, (S)-1-(4-(3-(4-chlorophenoxy)-5-fluorobenzyl)-2-methylpiperazine-1-carbonyl)-1H-pyrazole-3-carboxylic acid] | 0 to 25 | > 75 | > 75
8 | C[C@H]1CC[C@H](C)N1c1cc(C(F)(F)F)ccc1CN1CCN(C(=O)n2ccc(C(=O)O)n2)CC1 [Example 360, 1-(4-(2-((2S,5S)-2,5-dimethylpyrrolidin-1-yl)-4-(trifluoromethyl)benzyl)piperazine-1-carbonyl)-1H-pyrazole-3-carboxylic acid] | 0 to 25 | > 75 | > 75
9 | CN(Cc1cccc(C(F)(F)F)c1N1CCCC1)C1(C)CCN(C(=O)n2ccc(C(=O)O)n2)CC1 [Example 382, 1-(4-methyl-4-(methyl(2-(pyrrolidin-1-yl)-3-(trifluoromethyl)benzyl)amino)piper-idine-1-carbonyl)-1H-pyrazole-3-carboxylic acid] | 0 to 25 | > 75 | > 75
10 | CN(Cc1cc(C(F)(F)F)ccc1N1CCCC1)C1(C)CCN(C(=O)n2ccc(C(=O)O)n2)CC1 [Example 384, 1-(4-methyl-4-(methyl(2-(pyrrolidin-1-yl)-5-(trifluoromethyl)benzyl)amino)piper-idine-1-carbonyl)-1H-pyrazole-3-carboxylic acid] | 0 to 25 | > 75 | > 75
11 | O=C(O)c1nn(C(=O)N2CCC3(CCN(Cc4cc(Cl)cc(C(F)(F)F)c4)C3)CC2)cc1Cl [Example 388, 4-chloro-1-(2-(3-chloro-5-(trifluoromethyl)benzyl)-2,8-diazaspiro[4.5]decane-8-carbonyl)-1H-pyrazole-3-carboxylic acid] | 0 to 25 | > 75 | > 75
12 | C[C@@H]1CN(Cc2ccc(C(F)(F)F)cc2N2C3CCC2COC3)CCN1C(=O)n1ccc(C(=O)O)n1 [Example 393, 1-((2R)-4-(2-(3-oxa-8-azabicyclo[3.2.1]octan-8-yl)-4-(trifluoromethyl)benzyl)-2-methylpiperazine-1-carbonyl)-1H-pyrazole-3-carboxylic acid] | 0 to 25 | > 75 | > 75

Further lines, results first:

Row | inhibition at 5 mg/kg (MAGL [1]) [%] | inhibition at 1 µM (MAGL [2]) [%] | inhibition at 1 µM (MAGL [3]) [%] | SMILES
13 | 0 to 25 | > 75 | > 75 | Cc1ccc(Oc2cccc(CN3CCN(C(=O)n4ccc(C(=O)O)n4)CC3)c2)cc1 [Example 251, 1-(4-(3-(p-tolyloxy)benzyl)pi-perazine-1-carbonyl)-1H-pyrazole-3-carboxylic acid]
14 | 0 to 25 | > 75 | > 75 | Cc1cn(C(=O)N2C[C@H]3C[C@H](OCc4cc(F)cc(Cl)c4)C[C@H]3C2)nc1C(=O)O [Example 252, 1-(trans-5-((3-chloro-5-fluorobenzyl)oxy)octahydrocyclopenta [c]pyrrole-2-carbonyl)-4-methyl-1H-pyrazole-3-carboxylic acid]
15 | 0 to 25 | > 75 | > 75 | O=C(O)c1ccn(C(=O)N2CCN(Cc3cc(Cl)cc(-c4cncnc4)c3)CC2)n1 [Example 269, 1-(4-(3-chloro-5-(pyrimidin-5-yl)benzyl)piperazine-1-carbonyl)-1H-pyrazole-3-carboxylic acid]
16 | 25 to 50 | > 75 | > 75 | C[C@@H]1CN(Cc2ccc(-c3ccccc3)cc2Cl)CCN1C(=O)n1ccc(C(=O)O)n1 [Example 291, (R)-1-(4-((3-chloro-[1,1′-biphenyl]-4-yl)methyl)-2-methylpiperazine-1-carbonyl)-1H-pyrazole-3-carboxylic acid]
17 | 0 to 25 | > 75 | > 75 | O=C(O)c1ccn(C(=O)N2CCC(Oc3ccc(C(F)(F)F)cc3N3CCCC3)CC2)n1 [Example 307, 1-(4-(2-(pyrrolidin-1-yl)-4-(trifluoromethyl)phenoxy)piperidine-1-carbonyl)-1H-pyrazole-3-carboxylic acid]
18 | 0 to 25 | > 75 | > 75 | C[C@@H]1CN(Cc2ccc(C(F)(F)F)cc2N2CCCC2)CCN1C(=O)n1ccc(C(=O)O)n1 [Example 327, (R)-1-(2-methyl-4-(2-(pyrrolidin-1-yl)-4-(trifluoromethyl)benzyl)piperazine-1-carbonyl)-1H-pyrazole-3-carboxylic acid]
19 | 0 to 25 | > 75 | > 75 | C[C@H]1CN(Cc2ccc(C(F)(F)F)cc2N2CCCC2)CCN1C(=O)n1ccc(C(=O)O)n1 [Example 328, (S)-1-(2-methyl-4-(2-(pyrrolidin-1-yl)-4-(trifluoromethyl)benzyl)piperazine-1-carbonyl)-1H-pyrazole-3-carboxylic acid]
20 | 0 to 25 | > 75 | > 75 | C[C@@H]1CC[C@@H](C)N1c1cc(C(F)(F)F)ccc1CN1CCN(C(=O)n2ccc(C(=O)O)n2)CC1 [Example 359, 1-(4-(2-((2R,5R)-2,5-dimethylpyrrolidin-1-yl)-4-(trifluoromethyl)benzyl)piperazine-1-carbonyl)-1H-pyrazole-3-carboxylic acid]
21 | 0 to 25 | > 75 | > 75 | CN(Cc1cc(N2CCCC2)cc(C(F)(F)F)c1)C1(C)CCN(C(=O)n2ccc(C(=O)O)n2)CC1 [Example 381, 1-(4-methyl-4-(methyl(3-(pyrrolidin-1-yl)-5-(trifluoromethyl)benzyl)amino)piper-idine-1-carbonyl)-1H-pyrazole-3-carboxylic acid]
22 | 0 to 25 | > 75 | > 75 | CN(Cc1ccc(C(F)(F)F)c(N2CCCC2)c1)C1(C)CCN(C(=O)n2ccc(C(=O)O)n2)CC1 [Example 385, 1-(4-methyl-4-(methyl(3-(pyrrolidin-1-yl)-4-(trifluoromethyl)benzyl)amino)piper-idine-1-carbonyl)-1H-pyrazole-3-carboxylic acid]
